Source: PMC11651915, “Small molecule protein assembly modulators with pan-cancer therapeutic efficacy” (Open Biology, 2024)

Legend:
SR = test: cells; details: Homo sapiens, 48 h
UACC-62 = test: cells; details: Homo sapiens, UACC-62, 48 h
OVCAR-8 = test: cells; details: Homo sapiens, OVCAR-8, 48 h
[1] = system: A549 human lung cancer xenograft; test: A549 xenograft studies; details: A549 xenograft, PAV-951 study, 14 days, IV; PAV-951 1.5 mg kg^−1 once daily, Gemcitabine 100 mg kg^−1 twice weekly
HOP-62 = test: cells; assay type: cell-based; details: Homo sapiens, NCI-60, 48 h
HT-29 = test: In-house cancer cell viability screen (AlamarBlue); assay type: cell-based; details: Homo sapiens, 72 h
COR-L105 = test: Eurofins OncoPanel (CellTiter-Glo); assay type: cell-based; details: Homo sapiens, 72 h, 3 days
NCI-H522 = test: cells; details: Homo sapiens, NCI-H522, 48 h
SK-MEL-5 = test: cells; details: Homo sapiens, SK-MEL-5, 48 h
ACHN = test: cells; details: Homo sapiens, 48 h
K-562 = test: cells; assay type: cell-based; details: Homo sapiens, K562, NCI-60, 48 h
SW1353 = test: Eurofins OncoPanel (CellTiter-Glo); assay type: cell-based; details: Homo sapiens, 72 h, 3 days
[2] = system: HT-29 colorectal cancer xenograft; test: HT-29 xenograft study; assay type: in vivo, mouse; details: 17 days, PAV-951 3 mg kg^−1 IV, Irinotecan 60 mg kg^−1 IP
Experimental: In the second animal efficacy study, human HT-29 colorectal adenocarcinoma cells were grafted subcutaneously onto mice. After tumour establishment, the animals received treatment with vehicle, 3 mg kg^−1 PAV-951 or 60 mg kg^−1 of a positive control drug Irinotecan. […]. Survival was not assessed as part of the study.
HT-29 cells growing in HBSS medium were suspended in Matrigel. 0.1 ml of the cell suspension containing 5 × 10^6 cells were injected subcutaneously into the left flank region of male, 6–8 week old SCID mice. After tumour establishment, animals were divided randomly into groups of six and treated daily by IV with vehicle daily for 17 days, 3 mg kg^−1 PAV-951 three times per week for 17 days, or treated by IP with 60 mg kg^−1 Irinotecan every 4 days for 14 days. Tumour volume was calculated using the formula: (L × W2)/2 where L is the largest diameter and W is the smallest diameter of the tumour. Statistical analysis was performed using GraphPad Prism (Ver. 5.03). Statistical analysis of tumour growth inhibition between the Control and Treated groups was performed by using ne-way ANOVA followed by Dunnett’s test.

SK-MEL-2 = test: cells; details: Homo sapiens, SK-MEL-2, 48 h
CCRF-CEM = test: cells; assay type: cell-based; details: Homo sapiens, NCI-60, 48 h
DB = test: Eurofins OncoPanel (CellTiter-Glo); assay type: cell-based; details: Homo sapiens, 72 h, 3 days
CAKI-1 = test: cells; assay type: cell-based; details: Homo sapiens, NCI-60, 48 h
MALME-3M = test: cells; assay type: cell-based; details: Homo sapiens, NCI-60, 48 h
U251 = test: cells; details: Homo sapiens, U-251, 48 h
NCI-H226 = test: cells; details: Homo sapiens, NCI-H226, 48 h
LNCaP C-33 = test: In-house cancer cell viability screen (AlamarBlue); assay type: cell-based; details: Homo sapiens, LnCAP-C33, 72 h
BT-549 = test: cells; details: Homo sapiens, BT-549, 48 h
SF-539 = test: cells; details: Homo sapiens, SF-539, 48 h
NCI-H460 = test: cells; assay type: cell-based; details: Homo sapiens, NCI-60, 48 h
MeWo = test: Eurofins OncoPanel (CellTiter-Glo); details: Homo sapiens, 72 h
NCI-H23 = test: cells; details: Homo sapiens, NCI-H23, 48 h
SN12C = test: cells; details: Homo sapiens, 48 h
DU-145 = test: cells; details: Homo sapiens, DU-145, 48 h
MCF7 = test: cells; details: Homo sapiens, MCF7, 48 h
RXF 393 = test: cells; details: Homo sapiens, RXF 393, 48 h
HCT-116 = test: cells; assay type: cell-based; details: Homo sapiens, NCI-60, 48 h
SU-DHL-10 = test: Eurofins OncoPanel (CellTiter-Glo); assay type: cell-based; details: Homo sapiens, SU-DHL10, 72 h, 3 days
BFTC-905 = test: Eurofins OncoPanel (CellTiter-Glo); assay type: cell-based; details: Homo sapiens, 72 h, 3 days
A549 = test: In-house cancer cell viability screen (AlamarBlue); assay type: cell-based, human; details: for IC50: Homo sapiens, AlamarBlue
PANC-1 = test: In-house cancer cell viability screen (AlamarBlue); assay type: cell-based; details: Homo sapiens, 72 h
FaDu = test: Eurofins OncoPanel (CellTiter-Glo); assay type: cell-based; details: Homo sapiens, 72 h, 3 days

Compound: CC(C)CCNc1ncnc2cc(N3CCN(c4ccc5c(NCCC(C)C)ncnc5c4)CC3)ccc12 [PAV-951]
- GI50 (SR): 0.0519 µM
- CC50 (SR; read-out: LC50): 1.9 µM
- GI50 (UACC-62): 1.38 µM
- CC50 (UACC-62; read-out: LC50): 5.61 µM
- GI50 (OVCAR-8): 0.521 µM
- CC50 (OVCAR-8; read-out: LC50): 5.18 µM
- tumour growth inhibition (TGI) [1]: 72%
- GI50 (HOP-62): 0.358 µM
- IC50 (HT-29): 0.101 µM
- IC50 (COR-L105): 0.962 µM
- GI50 (NCI-H522): 1.77 µM
- CC50 (NCI-H522; read-out: LC50): 6.95 µM
- GI50 (SK-MEL-5): 1.87 µM
- CC50 (SK-MEL-5; read-out: LC50): 9.12 µM
- GI50 (ACHN): 0.586 µM
- CC50 (ACHN; read-out: LC50): 4.28 µM
- GI50 (K-562): 0.131 µM
- IC50 (SW1353): 2.21 µM
- tumour growth inhibition (TGI) [2]: 52%
- GI50 (SK-MEL-2): 1.65 µM
- CC50 (SK-MEL-2; read-out: LC50): 5.91 µM
- GI50 (CCRF-CEM): 0.198 µM
- IC50 (DB): 0.895 µM
- GI50 (CAKI-1): 0.311 µM
- GI50 (MALME-3M): 1.52 µM
- GI50 (U251): 0.213 µM
- CC50 (U251; read-out: LC50): 0.91 µM
- GI50 (NCI-H226): 1.76 µM
- CC50 (NCI-H226; read-out: LC50): 6.81 µM
- IC50 (LNCaP C-33): 0.542 µM
- GI50 (BT-549): 1.59 µM
- CC50 (BT-549; read-out: LC50): 6.04 µM
- GI50 (SF-539): 0.683 µM
- CC50 (SF-539; read-out: LC50): 4.53 µM
- GI50 (NCI-H460): 0.203 µM
- IC50 (MeWo): 1.18 µM
- GI50 (NCI-H23): 1.47 µM
- CC50 (NCI-H23; read-out: LC50): 5.62 µM
- GI50 (SN12C): 0.28 µM
- CC50 (SN12C; read-out: LC50): 3.41 µM
- GI50 (DU-145): 0.283 µM
- CC50 (DU-145; read-out: LC50): 2.83 µM
- GI50 (MCF7): 0.177 µM
- CC50 (MCF7; read-out: LC50): 0.924 µM
- GI50 (RXF 393): 0.448 µM
- GI50 (HCT-116): 0.185 µM
- IC50 (SU-DHL-10): 0.231 µM
- IC50 (BFTC-905): 0.701 µM
- change of potency when compound is added at the time of plating rather than 24 h later (A549; A549): increased significantly
- IC50 (A549; A549 (treatment 0 h after plating)): 2.16 µM
- IC50 (A549; A549 (treatment 24 h after plating), 72 h): 10.9 µM
- IC50 (PANC-1): 0.244 µM
- IC50 (FaDu): 0.523 µM
